Experimental data published in publication PMC8286840, “Identifying SARS-CoV-2 antiviral compounds by screening for small molecule inhibitors of Nsp3 papain-like protease” (Biochemical Journal, 2021).
Counter-ions that a name gives are not always drawn. Like-named read-outs stand apart in the source and are kept apart here.

Assays:
[1] = molecular target: T1, SARS-CoV-2 PLpro (nsp3 1564–1878) (Severe acute respiratory syndrome coronavirus 2, UniProt P0DTD1); assay: biochemical; set-up: FRET-quenched peptide (Pro3) cleavage by PLpro, 10 min pre-incubation, slope over 20 min, normalised to no-compound control; conditions: read-out: % of control remaining
[2] = molecular target: T1, SARS-CoV-2 PLpro (nsp3 1564–1878); assay: biochemical; set-up: FRET-quenched peptide (Pro3) cleavage by PLpro, 10 min pre-incubation, slope over 20 min, normalised to no-compound control; conditions: read-out: % of control remaining; remark: listed apart in the source

O=C(O)Cc1c[nH]c2ccccc12 [3-Indoleacetic acid]
remaining activity at 1.25 µM ([1]; Well no.=6255, low concentration screen): 108%
remaining activity at 3.75 µM ([2]; Well no.=6255, high concentration screen): 113%

Nc1ncnc2c1ncn2[C@H]1C[C@H](O)[C@@H](CO)O1 [2'-Deoxyadenosine monohydrate]
remaining activity at 1.25 µM ([1]; Well no.=8885, low concentration screen): 95.3%
remaining activity at 3.75 µM ([2]; Well no.=8885, high concentration screen): 90.7%

OC[C@H]1O[C@@H](O[C@@H]2OC=C[C@H]3[C@H](O)[C@@H]4O[C@]4(CO)[C@@H]23)[C@H](O)[C@@H](O)[C@@H]1O [Catalpol]
remaining activity at 1.25 µM ([1]; Well no.=3274, low concentration screen): 102%
remaining activity at 3.75 µM ([2]; Well no.=3274, high concentration screen): 103%

C[C@@H](NCCCc1cccc(C(F)(F)F)c1)c1cccc2ccccc12 [Cinacalcet]
remaining activity at 1.25 µM ([1]; Well no.=7389, low concentration screen): 96.2%
remaining activity at 3.75 µM ([2]; Well no.=7389, high concentration screen): 82.2%

Cc1ncc([N+](=O)[O-])n1CCO [Metronidazole]
remaining activity at 1.25 µM ([1]; Well no.=1963, low concentration screen): 99.6%
remaining activity at 3.75 µM ([2]; Well no.=1963, high concentration screen): 99.9%

CC#CCOC(=O)c1c(C)nc2sc3c(c2c1N)CCC(O)C3 (stereo not drawn) [SB 205384]
remaining activity at 1.25 µM ([1]; Well no.=1508, low concentration screen): 97.4%
remaining activity at 3.75 µM ([2]; Well no.=1508, high concentration screen): 96.2%

O=[N+]([O-])c1ccc(S(=O)(=O)NCc2ccccc2)c([N+](=O)[O-])c1 [N-Benzyl-2,4-dinitrobenzenesulfonamide]
remaining activity at 1.25 µM ([1]; Well no.=6125, low concentration screen): 98.4%
remaining activity at 3.75 µM ([2]; Well no.=6125, high concentration screen): 102%

CCCN(CCC)C(=O)C1=Cc2ccc(-c3ccc(C(=O)N4CCCC4)cc3)cc2N=C(N)C1 [Motolimod]
remaining activity at 1.25 µM ([1]; Well no.=8413, low concentration screen): 103%
remaining activity at 3.75 µM ([2]; Well no.=8413, high concentration screen): 99%

Cc1cc(=O)n(-c2ccccc2)n1C [Antipyrine]
remaining activity at 1.25 µM ([1]; Well no.=5024, low concentration screen): 96.5%
remaining activity at 3.75 µM ([2]; Well no.=5024, high concentration screen): 100%

COc1ccccc1S(=O)(=O)Nc1ccc2c(c1)CN(C)C(=O)N2 [PFI-1]
remaining activity at 1.25 µM ([1]; Well no.=4844, low concentration screen): 97%
remaining activity at 3.75 µM ([2]; Well no.=4844, high concentration screen): 88.7%

O=C(O)COCCN1CCN(C(c2ccccc2)c2ccc(Cl)cc2)CC1 (stereo not drawn) [Cetirizine 2HCl]
remaining activity at 1.25 µM ([1]; Well no.=1712, low concentration screen): 96.2%
remaining activity at 3.75 µM ([2]; Well no.=1712, high concentration screen): 98.8%

N/C(=N\C(=O)c1nc(Cl)c(N)nc1N)NCc1ccccc1 [Benzamil]
remaining activity at 1.25 µM ([1]; Well no.=2050, low concentration screen): 104%
remaining activity at 3.75 µM ([2]; Well no.=2050, high concentration screen): 104%

C[C@@](Cc1ccc(O)c(O)c1)(NN)C(=O)O [S-(-)-Carbidopa]
remaining activity at 1.25 µM ([1]; Well no.=677, low concentration screen): 99.2%
remaining activity at 3.75 µM ([2]; Well no.=677, high concentration screen): 97.9%

Cc1cccc(Cc2c[nH]cn2)c1C [Detomidine (hydrochloride)]
remaining activity at 1.25 µM ([1]; Well no.=6662, low concentration screen): 98.9%
remaining activity at 3.75 µM ([2]; Well no.=6662, high concentration screen): 102%

CCN(CC)C(=O)c1ccc(C2=CC3(CCNCC3)Oc3cccc(O)c32)cc1 [ADL-5859]
remaining activity at 1.25 µM ([1]; Well no.=8013, low concentration screen): 92.2%
remaining activity at 3.75 µM ([2]; Well no.=8013, high concentration screen): 85.8%

CN1C[C@@H](NS(=O)(=O)N(C)C)C[C@@H]2c3cccc4c3c(cn4C)C[C@H]21 [Mesulergine hydrochloride]
remaining activity at 1.25 µM ([1]; Well no.=897, low concentration screen): 106%
remaining activity at 3.75 µM ([2]; Well no.=897, high concentration screen): 105%

CC1=C[C@@H]2c3cccc4[nH]cc(c34)C[C@H]2N(C)C1 [Agroclavine]
remaining activity at 1.25 µM ([1]; Well no.=210, low concentration screen): 94.3%
remaining activity at 3.75 µM ([2]; Well no.=210, high concentration screen): 93.5%

CC(C)N(CCC(C(N)=O)(c1ccccc1)c1ccccn1)C(C)C (stereo not drawn) [Disopyramide phosphate salt]
remaining activity at 1.25 µM ([1]; Well no.=5508, low concentration screen): 105%
remaining activity at 3.75 µM ([2]; Well no.=5508, high concentration screen): 103%

CN(C)C(=N)NC(=N)N [Metformin HCl]
remaining activity at 1.25 µM ([1]; Well no.=8430, low concentration screen): 94.8%
remaining activity at 3.75 µM ([2]; Well no.=8430, high concentration screen): 94.9%

NC(CCP(=O)(O)O)C(=O)O (racemic)
remaining activity at 1.25 µM ([1]; Well no.=297, low concentration screen): 102%
remaining activity at 3.75 µM ([2]; Well no.=297, high concentration screen): 101%

CON(C)C(=O)[C@H](O)[C@H](Cc1ccccc1)NC(=O)c1cc2cc(Cl)ccc2[nH]1 [N-{(1S,2R)-1-benzyl-2-hydroxy-3-[methoxy(methyl)amino]-3-oxopropyl}-5-chloro-1H-indole-2-carboxamide]
remaining activity at 1.25 µM ([1]; Well no.=6057, low concentration screen): 100%
remaining activity at 3.75 µM ([2]; Well no.=6057, high concentration screen): 97.9%

CC(Cc1ccc(O)cc1)NCC(O)c1cc(O)cc(O)c1 (stereo not drawn) [Fenoterol hydrobromide]
remaining activity at 1.25 µM ([1]; Well no.=705, low concentration screen): 104%
remaining activity at 3.75 µM ([2]; Well no.=705, high concentration screen): 100%

CC(=O)OC(C)C[N+](C)(C)C (stereo not drawn) [Methacholine (chloride)]
remaining activity at 1.25 µM ([1]; Well no.=6323, low concentration screen): 100%
remaining activity at 3.75 µM ([2]; Well no.=6323, high concentration screen): 98.1%

CCCCC/C=C\C/C=C\CCCCCCCC(=O)NCC(=O)O [N-Linoleoylglycine]
remaining activity at 1.25 µM ([1]; Well no.=4595, low concentration screen): 95%
remaining activity at 3.75 µM ([2]; Well no.=4595, high concentration screen): 94.3%

Cc1ccc(C(=O)c2cc(O)c(O)c([N+](=O)[O-])c2)cc1 [Tolcapone]
remaining activity at 1.25 µM ([1]; Well no.=1790, low concentration screen): 97.4%
remaining activity at 3.75 µM ([2]; Well no.=1790, high concentration screen): 96%

NC(=O)NCCCC[C@H](N)C(=O)O [L-Homocitrulline]
remaining activity at 1.25 µM [1]: 101%
remaining activity at 3.75 µM [2]: 89.3%

O=[N+]([O-])c1cccc2cn[nH]c12 [7-Nitroindazole]
remaining activity at 1.25 µM ([1]; Well no.=955, low concentration screen): 107%
remaining activity at 3.75 µM ([2]; Well no.=955, high concentration screen): 100%

COC(=O)[C@@H](N)CCCNC(=N)N[N+](=O)[O-] [NG-Nitro-L-arginine methyl ester hydrochloride]
remaining activity at 1.25 µM ([1]; Well no.=1001, low concentration screen): 99.6%
remaining activity at 3.75 µM ([2]; Well no.=1001, high concentration screen): 98.3%

O=C(O)[C@@H]1[C@H](C(=O)O)[C@H]2CC[C@@H]1O2 [Endothall]
remaining activity at 1.25 µM ([1]; Well no.=701, low concentration screen): 97.9%
remaining activity at 3.75 µM ([2]; Well no.=701, high concentration screen): 97.8%

O=C1C2CCN(CC2)C1(CO)CO [PRIMA-1]
remaining activity at 1.25 µM ([1]; Well no.=6486, low concentration screen): 96.7%
remaining activity at 3.75 µM ([2]; Well no.=6486, high concentration screen): 97.6%

COc1ccc(-c2nc(-c3cc(C(F)(F)F)cc(C(F)(F)F)c3)n(Cc3ccc(C(N)=O)cc3)c2-c2ccc(OC)cc2)cc1 [Apoptozole]
remaining activity at 1.25 µM ([1]; Well no.=6596, low concentration screen): 102%
remaining activity at 1.25 µM ([1]; Well no.=8536, low concentration screen): 98.3%
remaining activity at 3.75 µM ([2]; Well no.=6596, high concentration screen): 92.9%
remaining activity at 3.75 µM ([2]; Well no.=8536, high concentration screen): 90.1%

c1ccc(/N=N/c2ccccc2)cc1 [Azobenzene]
remaining activity at 1.25 µM ([1]; Well no.=8080, low concentration screen): 102%
remaining activity at 3.75 µM ([2]; Well no.=8080, high concentration screen): 101%

O=C(O)/C=C1\CCCc2ccccc2C1O (stereo not drawn) [NCS-382]
remaining activity at 1.25 µM ([1]; Well no.=903, low concentration screen): 101%
remaining activity at 3.75 µM ([2]; Well no.=903, high concentration screen): 99.9%

CCOC(=O)[C@H](CCc1ccccc1)N[C@@H](C)C(=O)N1Cc2cc(OC)c(OC)cc2C[C@H]1C(=O)O [Moexipril HCl]
remaining activity at 1.25 µM ([1]; Well no.=4760, low concentration screen): 97.7%
remaining activity at 3.75 µM ([2]; Well no.=4760, high concentration screen): 97.7%

N=C(N)c1ccc(N)cc1 [4-Aminobenzamidine dihydrochloride]
remaining activity at 1.25 µM ([1]; Well no.=309, low concentration screen): 91.8%
remaining activity at 3.75 µM ([2]; Well no.=309, high concentration screen): 92.5%

O=c1c(-c2ccc(O)cc2)coc2cc(O)ccc12 [Daidzein]
remaining activity at 1.25 µM ([1]; Well no.=438, low concentration screen): 102%
remaining activity at 1.25 µM ([1]; Well no.=3219, low concentration screen): 103%
remaining activity at 3.75 µM ([2]; Well no.=438, high concentration screen): 99.2%
remaining activity at 3.75 µM ([2]; Well no.=3219, high concentration screen): 104%

CCCC(CCC)C(N)=O [Valpromide]
remaining activity at 1.25 µM ([1]; Well no.=5383, low concentration screen): 103%
remaining activity at 3.75 µM ([2]; Well no.=5383, high concentration screen): 109%
